Experimental data reported in PubChem BioAssay (NCI).
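48-hour exposure; five concentrations; linearly interpolated endpoints. Here, GI50 denotes the concentration required for 50% inhibition of growth. TGI is the concentration that stops growth completely.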

How the values were obtained:
Assay in all cases: NCI anticancer screen, dose series, 48 h
[1] = test system: 786-0 renal
[2] = test system: A498 renal
[3] = test system: A549 NSCLC
[4] = test system: ACHN renal
[5] = test system: CAKI-1 renal
[6] = test system: COLO 205 colon
[7] = test system: DLD-1 colon
[8] = test system: DMS 114 small cell lung
[9] = test system: DMS 273 small cell lung
[10] = test system: EKVX NSCLC
[11] = test system: HCC-2998 colon
[12] = test system: HCT-116 colon
[13] = test system: HCT-15 colon
[14] = test system: HL-60(TB) leukemia
[15] = test system: HOP-62 NSCLC
[16] = test system: HOP-92 NSCLC
[17] = test system: HT29 colon
[18] = test system: IGROV1 ovarian
[19] = test system: KM12 colon
[20] = test system: KM20L2 colon
[21] = test system: LOX IMVI melanoma
[22] = test system: LXFL 529 NSCLC
[23] = test system: M14 melanoma
[24] = test system: M19-MEL melanoma
[25] = test system: MALME-3M melanoma
[26] = test system: MOLT-4 leukemia
[27] = test system: NCI-H226 lung
[28] = test system: NCI-H23 lung
[29] = test system: NCI-H460 lung
[30] = test system: NCI-H522 lung
[31] = test system: OVCAR-3 ovarian
[32] = test system: OVCAR-4 ovarian
[33] = test system: OVCAR-5 ovarian
[34] = test system: OVCAR-8 ovarian
[35] = test system: RXF 393 renal
[36] = test system: SF-268 CNS
[37] = test system: SF-295 CNS
[38] = test system: SF-539 CNS
[39] = test system: SK-MEL-2 melanoma
[40] = test system: SK-MEL-28 melanoma
[41] = test system: SK-MEL-5 melanoma
[42] = test system: SK-OV-3 ovarian
[43] = test system: SN12C renal
[44] = test system: SNB-19 CNS
[45] = test system: SNB-75 CNS
[46] = test system: SNB-78 CNS
[47] = test system: SR leukemia
[48] = test system: SW-620 colon
[49] = test system: TK-10 renal
[50] = test system: U251 CNS
[51] = test system: UACC-257 melanoma
[52] = test system: UACC-62 melanoma
[53] = test system: UO-31 renal
[54] = test system: XF 498 CNS

Compound: CCC[CH2][Sn]([CH2]CCC)([O]C(=O)c1ccc(C)c(N)c1)[O]C(=O)c1ccc(C)c(N)c1
- GI50 [1]: 323 nM
- TGI [1]: 1310 nM
- GI50 [2]: 351 nM
- TGI [2]: 1210 nM
- GI50 [3]: 2820 nM
- TGI [3]: 8330 nM
- GI50 [4]: 352 nM
- TGI [4]: 1320 nM
- GI50 [5]: 136 nM
- TGI [5]: 1380 nM
- GI50 [6]: 330 nM
- TGI [6]: 1380 nM
- GI50 [7]: 282 nM
- TGI [7]: 1250 nM
- GI50 [8]: 132 nM
- TGI [8]: 322 nM
- GI50 [9]: 623 nM
- TGI [9]: 1970 nM
- GI50 [10]: 600 nM
- TGI [10]: 1940 nM
- GI50 [11]: 1140 nM
- TGI [11]: 2360 nM
- GI50 [12]: 527 nM
- TGI [12]: 1860 nM
- GI50 [13]: 698 nM
- TGI [13]: 2010 nM
- GI50 [14]: 144 nM
- TGI [14]: 863 nM
- GI50 [15]: 2290 nM
- TGI [15]: 3780 nM
- GI50 [16]: 305 nM
- TGI [16]: 1700 nM
- GI50 [17]: 1340 nM
- TGI [17]: 2640 nM
- GI50 [18]: 1160 nM
- TGI [18]: 2420 nM
- GI50 [19]: 1310 nM
- TGI [19]: 2610 nM
- GI50 [20]: 1500 nM
- TGI [20]: 2820 nM
- GI50 [21]: 185 nM
- TGI [21]: 681 nM
- GI50 [22]: 47.3 nM
- TGI [22]: 176 nM
- GI50 [23]: 647 nM
- TGI [23]: 1920 nM
- GI50 [24]: 244 nM
- TGI [24]: 1280 nM
- GI50 [25]: 179 nM
- TGI [25]: 776 nM
- GI50 [26]: 108 nM
- TGI [26]: 643 nM
- GI50 [27]: 334 nM
- TGI [27]: 1440 nM
- GI50 [28]: 203 nM
- TGI [28]: 1000 nM
- GI50 [29]: 1430 nM
- TGI [29]: 2740 nM
- GI50 [30]: 18 nM
- TGI [30]: 117 nM
- GI50 [31]: 1070 nM
- TGI [31]: 2260 nM
- GI50 [32]: 1240 nM
- TGI [32]: 2480 nM
- GI50 [33]: 1820 nM
- TGI [33]: 3220 nM
- GI50 [34]: 910 nM
- TGI [34]: 2120 nM
- GI50 [35]: 116 nM
- TGI [35]: 511 nM
- GI50 [36]: 418 nM
- TGI [36]: 1630 nM
- GI50 [37]: 1240 nM
- TGI [37]: 2490 nM
- GI50 [38]: 619 nM
- TGI [38]: 1890 nM
- GI50 [39]: 172 nM
- TGI [39]: 720 nM
- GI50 [40]: 347 nM
- TGI [40]: 1570 nM
- GI50 [41]: 1080 nM
- TGI [41]: 2280 nM
- GI50 [42]: 1840 nM
- TGI [42]: 3240 nM
- GI50 [43]: 537 nM
- TGI [43]: 1830 nM
- GI50 [44]: 1200 nM
- TGI [44]: 2430 nM
- GI50 [45]: 502 nM
- TGI [45]: 1870 nM
- GI50 [46]: 277 nM
- TGI [46]: 1540 nM
- GI50 [47]: 179 nM
- TGI [47]: 3620 nM
- GI50 [48]: 224 nM
- TGI [48]: 1040 nM
- GI50 [49]: 515 nM
- TGI [49]: 1660 nM
- GI50 [50]: 287 nM
- TGI [50]: 1280 nM
- GI50 [51]: 334 nM
- TGI [51]: 1620 nM
- GI50 [52]: 378 nM
- TGI [52]: 1440 nM
- GI50 [53]: 1110 nM
- TGI [53]: 2310 nM
- GI50 [54]: 181 nM
- TGI [54]: 353 nM
